The values that follow come from patent US5405852A, “Amide derivatives” (Zeneca Limited, priority 1992, dated 1995).

The target of this assay is T1, human leukocyte elastase (HLE) (Homo sapiens, UniProt P08246).
T1 sequence (P08246 30-267): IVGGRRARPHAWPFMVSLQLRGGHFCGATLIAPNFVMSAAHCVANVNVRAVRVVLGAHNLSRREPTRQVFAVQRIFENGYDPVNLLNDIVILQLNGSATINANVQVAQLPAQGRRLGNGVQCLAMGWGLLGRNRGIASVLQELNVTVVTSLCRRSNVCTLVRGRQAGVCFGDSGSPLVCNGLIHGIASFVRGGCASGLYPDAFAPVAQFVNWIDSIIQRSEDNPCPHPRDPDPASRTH
In words: Inhibition of human leukocyte elastase (HLE) on methoxy-succinyl-alanyl-alanyl-prolyl-valine-p-nitroanilide. It counts as biochemical. The conditions noted are these: dissociation constant of the inhibitor-HLE complex. Here is the method: The potency of a Compound to act as an inhibitor of human leukocyte elastase (HLE) on the low molecular weight peptide substrate methoxy-succinyl-alanyl-alanyl-prolyl-valine-p-nitroanilide is determined as described in U.S. Pat. No. 4,910,190. The potency of an inhibitor is evaluated by obtaining a kinetic determination of the dissociation constant, Ki, of the complex formed from the interaction of the inhibitor with HLE. If a Compound is found to be a "slow-binding" inhibitor of HLE, special methods of analysis to accurately determine Ki values for the inhibition of HLE are carried out as described in U.S. Pat. 4,910,190.

For the compound `CC(C)C(NC(=O)Cn1c(-c2ccccc2)cc2c([nH]c3c(C=O)cccc32)c1=O)C(=O)C(F)(F)F` (stereo not shown) [Example 2, 2-(8-Formyl-1-oxo-3-phenyl-1,2-dihydropyrido[3,4-b]indol2-yl)-N-(3,3,3-trifluoro-1-isopropyl-2-oxopropyl)acetamide], the Ki (commonly the dissociation constant of the complex between target and ligand, obtained from inhibition or displacement) was 27 nM.
